Assay results reported in ChEMBL document CHEMBL3244062, “3-Halo-5,7-dimethylpyrazolo [1,5-a]pyrimidines, a nonbenzodiazepinoid class of antianxiety agents devoid of potentiation of central nervous system depressant effects of ethanol or barbiturates” (J Med Chem, 1977).
Calls of active or inactive are those of the source. The calls are words filed in the database; no cut-off is given here.

Experiments:
Mus musculus [1] = assay: Antianxiety activity in mouse assessed as ataxia, catatonia, and alterations in motor activity and startle reflex at 100 mg/kg, ip after 30 to 120 mins; assay type: functional, organism-based; design: dose 100 mg/kg
Mus musculus [2] = assay: Antianxiety activity in mouse assessed as ataxia, catatonia, and alterations in motor activity and startle reflex at 50 mg/kg, ip after 30 to 120 mins; assay type: functional, organism-based; design: dose 50 mg/kg
Mus musculus [3] = assay: Antiaggressive activity in mouse assessed as change in foot shock-induced fighting behavior at 80 mg/kg, po after 30 mins; assay type: functional
Rattus norvegicus [4] = assay: Antiaggressive activity in Long-Evans black-hooded rat assessed as suppression of muricide behavior for 2 mins period at 80 mg/kg, po; assay type: functional; settings: Long-Evans black-hood
Mus musculus [5] = assay: […] in po dosed mouse assessed as potentiation of ethanol-induced loss of the righting reflex in 50% mouse; assay type: functional
Rattus norvegicus [6] = assay: Anticonvulsant activity in ip dosed rat assessed as impairment of motor performance by spontaneous motor activity test; assay type: functional
Mus musculus [7] = assay: Antiaggressive activity in mouse assessed as change in foot shock-induced fighting behavior at 20 mg/kg, po after 90 mins; assay type: functional
Rattus norvegicus [8] = assay: Antianxiety activity in ip dosed rat assessed as punished responding by conditioned lick suppression behavioral test; assay type: functional; settings: read-out: MED
[9] = Acute toxicity in mouse measured following single po dose; assay type: organism-based; settings: in vivo
Rattus norvegicus [10] = assay: Antipsychotic activity in ip dosed rat assessed as reduction in avoidance responding by Sidman avoidance test; assay type: functional
[11] = Acute toxicity in mouse measured following single ip dose; assay type: organism-based; settings: in vivo
Mus musculus [12] = assay: […] in po dosed mouse assessed as potentiation of sodium barbital-induced loss of the righting reflex in 50% mouse; assay type: functional
Rattus norvegicus [13] = assay: Anticonvulsant activity in ip dosed rat assessed as impairment of motor performance by forced motor activity test; assay type: functional
Mus musculus [14] = assay: Antiaggressive activity in mouse assessed as change in foot shock-induced fighting behavior at 20 mg/kg, po after 30 mins; assay type: functional
Rattus norvegicus [15] = assay: Antianxiety activity in po dosed rat assessed as punished responding by conditioned lick suppression behavioral test; assay type: functional; settings: read-out: MED
Mus musculus [16] = assay: Antiaggressive activity in mouse assessed as change in foot shock-induced fighting behavior at 80 mg/kg, po after 90 mins; assay type: functional
Rattus norvegicus [17] = assay: Antiaggressive activity in Long-Evans black-hooded rat assessed as suppression of muricide behavior for 2 mins period at 20 mg/kg, po; assay type: functional; settings: Long-Evans black-hood
Rhesus monkey [18] = assay: Antiaggressive activity in Rhesus monkey assessed as reduction in biting, pushing or attacking the pole responses at 25 to 100 mg/mg, po after 0 to 6 hrs; assay type: functional, organism-based; settings: Macaca mulatta
Rhesus monkey [19] = assay: Antiaggressive activity in Rhesus monkey assessed as reduction in biting, pushing or attacking the pole responses at 2.5 to 10 mg/mg, po after 0 to 6 hrs; assay type: functional, organism-based; settings: Macaca mulatta

CC(=O)Cc1cc(C)nc2ccnn12
Activity (Mus musculus [1]): Active
Activity (Mus musculus [2]): Active

Brc1cnn2cccnc12
Activity (Mus musculus [1]): inactive
Activity (Mus musculus [2]): inactive

Cc1cc(C)n2ncc(SC#N)c2n1
Activity (Mus musculus [1]): inactive
Activity (Mus musculus [2]): inactive

Cc1cc(C)n2ncc(S(N)(=O)=O)c2n1
Activity (Mus musculus [1]): inactive
Activity (Mus musculus [2]): inactive

Cc1cc(C)n2ncc(Br)c2n1
Activity (Mus musculus [1]): Active
Activity (Mus musculus [3]): -46%
inhibition in vivo at 80 mg/kg (Rattus norvegicus [4]): 60%
HD50 (Mus musculus [5]): 236.8 mg/kg
ED50 (Rattus norvegicus [6]): 27.1 mg/kg
Activity (Mus musculus [7]): 13%
minimal effective dose (Rattus norvegicus [8]): 10 mg/kg
LD50 [9]: 1350 mg/kg
ED50 (Rattus norvegicus [10]): 29.5 mg/kg
Activity (Mus musculus [2]): Active
LD50 [11]: 458 mg/kg
HD50 (Mus musculus [12]): 61.9 mg/kg
ED50 (Rattus norvegicus [13]): 18.4 mg/kg
Activity (Mus musculus [14]): 30%
minimal effective dose (Rattus norvegicus [15]): 20 mg/kg
Activity (Mus musculus [16]): -8%
inhibition in vivo at 20 mg/kg (Rattus norvegicus [17]): 0%
inhibition (Rhesus monkey [18]): inactive

Cc1cc(C)n2ncc(N)c2n1
Activity (Mus musculus [1]): inactive
Activity (Mus musculus [2]): inactive

Cc1ccnc2c(Br)cnn12
Activity (Mus musculus [1]): inactive
Activity (Mus musculus [2]): inactive

Cc1cc(C)n2nccc2n1
Activity (Mus musculus [1]): Active
HD50 (Mus musculus [5]): 228.6 mg/kg
ED50 (Rattus norvegicus [6]): 79 mg/kg
minimal effective dose (Rattus norvegicus [8]): 40 mg/kg
LD50 [9]: 928 mg/kg
ED50 (Rattus norvegicus [10]): 60.3 mg/kg
Activity (Mus musculus [2]): Active
LD50 [11]: 537 mg/kg
HD50 (Mus musculus [12]): 118.8 mg/kg
ED50 (Rattus norvegicus [13]): 65 mg/kg
minimal effective dose (Rattus norvegicus [15]): 60 mg/kg

Cc1cc(C)n2ncc(C(N)=S)c2n1
Activity (Mus musculus [1]): inactive
Activity (Mus musculus [2]): inactive

Cc1cc(C)n2ncc(C(N)=O)c2n1
Activity (Mus musculus [1]): Active
Activity (Mus musculus [2]): Active

CN(C)CCCN1c2ccccc2Sc2ccc(Cl)cc21 [CHLORPROMAZINE]
ED50 (Rattus norvegicus [10]): 3.7 mg/kg

CNC1=Nc2ccc(Cl)cc2C(c2ccccc2)=[N+]([O-])C1 [CHLORDIAZEPOXIDE]
HD50 (Mus musculus [5]): 12.6 mg/kg
minimal effective dose (Rattus norvegicus [8]): 20 mg/kg
LD50 [9]: 939 mg/kg
ED50 (Rattus norvegicus [10]): 14.3 mg/kg
LD50 [11]: 183 mg/kg
HD50 (Mus musculus [12]): 6.4 mg/kg
minimal effective dose (Rattus norvegicus [15]): 60 mg/kg

FC(F)(F)c1cc(C(F)(F)F)n2nccc2n1
Activity (Mus musculus [1]): inactive
Activity (Mus musculus [2]): inactive

Cc1cc(C)n2ncc(F)c2n1
Activity (Mus musculus [1]): Active
minimal effective dose (Rattus norvegicus [8]): 40 mg/kg
ED50 (Rattus norvegicus [10]): 40.2 mg/kg
Activity (Mus musculus [2]): Active
minimal effective dose (Rattus norvegicus [15]): 80 mg/kg

Cc1cc(C)n2ncc([N+](=O)[O-])c2n1
Activity (Mus musculus [1]): inactive
Activity (Mus musculus [2]): inactive

Cc1cc(C)n2ncc(C)c2n1
Activity (Mus musculus [1]): Active
Activity (Mus musculus [2]): Active

Cc1cc(C)n2nc(O)c(Br)c2n1
Activity (Mus musculus [1]): inactive
Activity (Mus musculus [2]): inactive

CN1C(=O)CN=C(c2ccccc2)c2cc(Cl)ccc21 [DIAZEPAM]
HD50 (Mus musculus [5]): 1.5 mg/kg
inhibition (Rhesus monkey [19]): inactive
ED50 (Rattus norvegicus [6]): 9.2 mg/kg
minimal effective dose (Rattus norvegicus [8]): 20 mg/kg
ED50 (Rattus norvegicus [10]): 11.3 mg/kg
HD50 (Mus musculus [12]): 0.5 mg/kg
ED50 (Rattus norvegicus [13]): 5.6 mg/kg
minimal effective dose (Rattus norvegicus [15]): 20 mg/kg

Cc1cn2ncc(Br)c2nc1C
Activity (Mus musculus [1]): inactive
Activity (Mus musculus [2]): inactive

CCCc1cc(C)nc2c(Br)cnn12
Activity (Mus musculus [1]): Active
Activity (Mus musculus [2]): Active

CCOC(=O)c1cnn2c(C)cc(C)nc12
Activity (Mus musculus [1]): inactive
Activity (Mus musculus [2]): inactive

Cc1cc(C)n2ncc(-c3ccccc3)c2n1
Activity (Mus musculus [1]): inactive
Activity (Mus musculus [2]): inactive

Cc1cc(C)n2ncc(/C(N)=N/O)c2n1
Activity (Mus musculus [1]): inactive
Activity (Mus musculus [2]): inactive

Cc1cc(C)n2ncc(S)c2n1
Activity (Mus musculus [1]): inactive
Activity (Mus musculus [2]): inactive

CCCCc1cc(CCCC)n2ncc(Br)c2n1
Activity (Mus musculus [1]): inactive
Activity (Mus musculus [2]): inactive

Cc1cc(C)n2ncc(C(=O)C(F)(F)F)c2n1
Activity (Mus musculus [1]): inactive
Activity (Mus musculus [2]): inactive

c1cnc2ccnn2c1
Activity (Mus musculus [1]): Active
Activity (Mus musculus [2]): Active

Cc1cc(C)n2[nH]c(=O)cc2n1
Activity (Mus musculus [1]): inactive
Activity (Mus musculus [2]): inactive

Cc1cc(C)n2ncc(I)c2n1
Activity (Mus musculus [1]): Active
HD50 (Mus musculus [5]): 296.1 mg/kg
ED50 (Rattus norvegicus [6]): 24.9 mg/kg
minimal effective dose (Rattus norvegicus [8]): 20 mg/kg
LD50 [9]: > 3000 mg/kg
ED50 (Rattus norvegicus [10]): 39.1 mg/kg
Activity (Mus musculus [2]): Active
LD50 [11]: 612 mg/kg
HD50 (Mus musculus [12]): 142.8 mg/kg
ED50 (Rattus norvegicus [13]): 19.8 mg/kg
minimal effective dose (Rattus norvegicus [15]): 120 mg/kg

Cc1ccnc2ccnn12
Activity (Mus musculus [1]): inactive
Activity (Mus musculus [2]): inactive

Cc1cc(C)n2ncc(Cl)c2n1
Activity (Mus musculus [1]): Active
Activity (Mus musculus [3]): -89%
inhibition in vivo at 80 mg/kg (Rattus norvegicus [4]): 80%
HD50 (Mus musculus [5]): 391.7 mg/kg
ED50 (Rattus norvegicus [6]): 38.6 mg/kg
Activity (Mus musculus [7]): 22%
minimal effective dose (Rattus norvegicus [8]): 10 mg/kg
LD50 [9]: 599 mg/kg
ED50 (Rattus norvegicus [10]): 31.8 mg/kg
Activity (Mus musculus [2]): Active
LD50 [11]: 369 mg/kg
HD50 (Mus musculus [12]): 60.9 mg/kg
ED50 (Rattus norvegicus [13]): 32.7 mg/kg
Activity (Mus musculus [14]): -3%
minimal effective dose (Rattus norvegicus [15]): 10 mg/kg
Activity (Mus musculus [16]): -57%
inhibition in vivo at 20 mg/kg (Rattus norvegicus [17]): 0%
inhibition (Rhesus monkey [18]): inactive

Cc1cc(C)n2ncc(S(=O)(=O)Cl)c2n1
Activity (Mus musculus [1]): inactive
Activity (Mus musculus [2]): inactive

Cc1cc(C)n2ncc(N=O)c2n1
Activity (Mus musculus [1]): inactive
Activity (Mus musculus [2]): inactive

Cc1ccn2nccc2n1
Activity (Mus musculus [1]): Active
Activity (Mus musculus [2]): Active

CCc1cc(CC)n2ncc(Br)c2n1
Activity (Mus musculus [1]): Active
Activity (Mus musculus [2]): Active

Cc1cc(C)n2nc(Cl)cc2n1
Activity (Mus musculus [1]): Active
Activity (Mus musculus [2]): Active

CCc1cc(C)nc2c(Br)cnn12
Activity (Mus musculus [1]): Active
Activity (Mus musculus [2]): Active

Cc1cc(C)n2nc(Br)cc2n1
Activity (Mus musculus [1]): Active
Activity (Mus musculus [2]): Active

Cc1cnc2ccnn2c1
Activity (Mus musculus [1]): inactive
Activity (Mus musculus [2]): inactive

CC(C)c1cc(C(C)C)n2ncc(Br)c2n1
Activity (Mus musculus [1]): inactive
Activity (Mus musculus [2]): inactive

Cc1cc(C)n2ncc(S(=O)(=O)N3CCN(C)CC3)c2n1
Activity (Mus musculus [1]): inactive
Activity (Mus musculus [2]): inactive

Cc1cc(C)n2ncc(C#N)c2n1
Activity (Mus musculus [1]): inactive
Activity (Mus musculus [2]): inactive

Cc1cn2nccc2nc1C
Activity (Mus musculus [1]): inactive
Activity (Mus musculus [2]): inactive
